Here are results for eight molecules from ChEMBL document CHEMBL1909046, “DrugMatrix in vitro pharmacology data”.

A short description of assay [1]: DRUGMATRIX: Tumor Necrosis Factor (TNF), Non-Selective radioligand binding (ligand: [125I] TNF-alpha). The class given is cell membranes, Membrane. Particulars: u-937; Not Active = under 50% inhibition at 10 µM.
A further assay concerns the target T1, Estrogen receptor (Homo sapiens, UniProt P03372). Note: in other assays of this panel Not Active means under 50% inhibition at 10 µM.
T1 sequence (P03372 whole entry): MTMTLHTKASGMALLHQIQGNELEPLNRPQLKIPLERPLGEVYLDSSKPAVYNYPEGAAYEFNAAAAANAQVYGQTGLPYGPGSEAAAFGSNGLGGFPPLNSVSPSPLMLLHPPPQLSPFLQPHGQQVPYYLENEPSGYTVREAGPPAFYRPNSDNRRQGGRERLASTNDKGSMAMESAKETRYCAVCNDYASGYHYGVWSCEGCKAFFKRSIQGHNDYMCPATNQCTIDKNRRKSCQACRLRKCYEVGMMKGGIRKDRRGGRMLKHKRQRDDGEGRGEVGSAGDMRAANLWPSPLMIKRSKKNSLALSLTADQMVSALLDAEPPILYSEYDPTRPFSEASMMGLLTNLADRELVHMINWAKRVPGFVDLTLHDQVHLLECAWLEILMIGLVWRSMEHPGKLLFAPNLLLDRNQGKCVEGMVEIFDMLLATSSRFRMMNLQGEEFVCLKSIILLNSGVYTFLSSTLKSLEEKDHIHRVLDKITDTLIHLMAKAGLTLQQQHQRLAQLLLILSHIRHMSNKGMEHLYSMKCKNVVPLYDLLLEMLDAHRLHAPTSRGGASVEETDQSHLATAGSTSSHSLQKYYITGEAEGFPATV
As to conditions: sf9.

The next assay has as its target Nitric oxide synthase 1 (Rattus norvegicus, UniProt P29476). The class given is tissue-based, Cerebellum. Note: in other assays of this panel Not Active means under 50% inhibition at 10 µM.
The target of assay [2] is T2, Polyunsaturated fatty acid lipoxygenase ALOX15 (Oryctolagus cuniculus, UniProt P12530).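 Note: inhibition of 15-lipoxygenase enzyme activity measured with linoleic acid as the substrate; in other assays of this panel Not Active means under 50% inhibition at 10 µM.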
T2 sequence (P12530 whole entry): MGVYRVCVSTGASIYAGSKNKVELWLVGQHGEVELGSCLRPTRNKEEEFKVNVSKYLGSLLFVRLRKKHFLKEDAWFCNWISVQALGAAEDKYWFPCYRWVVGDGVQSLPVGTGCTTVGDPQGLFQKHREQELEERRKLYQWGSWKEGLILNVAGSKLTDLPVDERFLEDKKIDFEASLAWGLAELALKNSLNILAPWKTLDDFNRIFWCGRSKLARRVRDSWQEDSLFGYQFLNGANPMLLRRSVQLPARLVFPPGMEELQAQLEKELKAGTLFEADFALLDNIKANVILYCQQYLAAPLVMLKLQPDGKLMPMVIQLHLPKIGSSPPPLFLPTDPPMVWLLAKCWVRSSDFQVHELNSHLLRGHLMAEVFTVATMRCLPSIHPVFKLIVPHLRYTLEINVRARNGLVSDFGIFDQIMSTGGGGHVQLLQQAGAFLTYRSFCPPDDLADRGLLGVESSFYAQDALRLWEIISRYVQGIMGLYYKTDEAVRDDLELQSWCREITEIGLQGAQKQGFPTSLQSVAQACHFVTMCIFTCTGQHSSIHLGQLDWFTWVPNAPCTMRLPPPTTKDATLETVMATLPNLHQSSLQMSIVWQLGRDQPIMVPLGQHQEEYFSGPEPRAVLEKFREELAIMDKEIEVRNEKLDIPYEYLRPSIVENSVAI
Put plainly: biochemical. The class given is tissue-based, Reticulocytes. As to conditions: reticulocytes.

Another assay concerns the target D(3) dopamine receptor (Homo sapiens, UniProt P35462). Put plainly: DRUGMATRIX: Dopamine D3 radioligand binding (ligand: [3H] Spiperone). Type of assay: cell membranes, CHO, Membrane. As to conditions: cho.
Assay [3] is described as follows: DRUGMATRIX: Phosphodiesterase PDE3 enzyme inhibition (substrate: [3H]cAMP + cAMP). The class given is tissue-based, Homo sapiens. Particulars: platelet; Not Active = under 50% inhibition at 10 µM.
Assay [4] addresses T3, C-C chemokine receptor type 4 (Homo sapiens, UniProt P51679).
T3 sequence (P51679 whole entry): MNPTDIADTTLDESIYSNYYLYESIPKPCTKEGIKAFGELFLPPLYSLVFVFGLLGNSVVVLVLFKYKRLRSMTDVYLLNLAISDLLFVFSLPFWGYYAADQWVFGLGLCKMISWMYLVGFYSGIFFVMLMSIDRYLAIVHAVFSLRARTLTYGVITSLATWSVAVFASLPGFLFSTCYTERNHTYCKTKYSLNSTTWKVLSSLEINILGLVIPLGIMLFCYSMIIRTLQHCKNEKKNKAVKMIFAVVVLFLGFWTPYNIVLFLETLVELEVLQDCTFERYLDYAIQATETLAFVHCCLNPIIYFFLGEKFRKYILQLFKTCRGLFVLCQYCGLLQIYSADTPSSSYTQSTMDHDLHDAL
Type of assay: cell membranes, Membrane. Particulars: chem-1.

Nitric oxide synthase 1, sequence (P29476 whole entry): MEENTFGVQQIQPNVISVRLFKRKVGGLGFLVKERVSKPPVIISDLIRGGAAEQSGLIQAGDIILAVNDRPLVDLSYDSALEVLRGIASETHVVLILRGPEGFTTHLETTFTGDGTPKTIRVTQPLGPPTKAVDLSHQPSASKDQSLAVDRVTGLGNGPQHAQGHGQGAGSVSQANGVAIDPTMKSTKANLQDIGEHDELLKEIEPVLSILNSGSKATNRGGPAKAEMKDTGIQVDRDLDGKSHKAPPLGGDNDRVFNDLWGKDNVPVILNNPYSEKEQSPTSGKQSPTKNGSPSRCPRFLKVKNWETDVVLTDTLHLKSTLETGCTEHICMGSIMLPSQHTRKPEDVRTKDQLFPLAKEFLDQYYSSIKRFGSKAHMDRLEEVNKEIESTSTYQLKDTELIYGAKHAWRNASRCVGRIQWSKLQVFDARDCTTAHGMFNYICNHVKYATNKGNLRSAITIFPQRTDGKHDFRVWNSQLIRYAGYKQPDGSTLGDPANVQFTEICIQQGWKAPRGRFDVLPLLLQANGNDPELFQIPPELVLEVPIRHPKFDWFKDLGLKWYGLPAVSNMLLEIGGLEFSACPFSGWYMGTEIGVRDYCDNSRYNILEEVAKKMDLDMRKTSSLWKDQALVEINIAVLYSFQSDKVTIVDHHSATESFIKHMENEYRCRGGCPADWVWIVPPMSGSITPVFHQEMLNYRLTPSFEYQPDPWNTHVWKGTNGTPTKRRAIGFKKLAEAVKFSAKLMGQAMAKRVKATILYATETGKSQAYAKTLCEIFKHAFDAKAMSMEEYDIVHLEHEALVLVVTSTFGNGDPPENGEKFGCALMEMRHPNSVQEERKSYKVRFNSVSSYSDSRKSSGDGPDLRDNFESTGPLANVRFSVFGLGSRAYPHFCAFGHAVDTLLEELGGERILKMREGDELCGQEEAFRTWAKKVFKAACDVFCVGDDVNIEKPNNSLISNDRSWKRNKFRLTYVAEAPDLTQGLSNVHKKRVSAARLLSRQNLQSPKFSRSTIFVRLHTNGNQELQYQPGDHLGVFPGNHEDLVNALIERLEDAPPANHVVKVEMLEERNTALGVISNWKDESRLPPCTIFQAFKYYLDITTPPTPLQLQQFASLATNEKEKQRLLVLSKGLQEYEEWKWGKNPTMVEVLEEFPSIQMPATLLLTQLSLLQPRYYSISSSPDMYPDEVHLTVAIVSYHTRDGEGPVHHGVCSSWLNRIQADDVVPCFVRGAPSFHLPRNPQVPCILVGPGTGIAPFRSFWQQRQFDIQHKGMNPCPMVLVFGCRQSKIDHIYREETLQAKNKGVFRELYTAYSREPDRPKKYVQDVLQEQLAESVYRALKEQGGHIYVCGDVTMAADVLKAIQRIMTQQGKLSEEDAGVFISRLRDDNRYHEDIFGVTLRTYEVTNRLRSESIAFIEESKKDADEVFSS
D(3) dopamine receptor, sequence (P35462 whole entry): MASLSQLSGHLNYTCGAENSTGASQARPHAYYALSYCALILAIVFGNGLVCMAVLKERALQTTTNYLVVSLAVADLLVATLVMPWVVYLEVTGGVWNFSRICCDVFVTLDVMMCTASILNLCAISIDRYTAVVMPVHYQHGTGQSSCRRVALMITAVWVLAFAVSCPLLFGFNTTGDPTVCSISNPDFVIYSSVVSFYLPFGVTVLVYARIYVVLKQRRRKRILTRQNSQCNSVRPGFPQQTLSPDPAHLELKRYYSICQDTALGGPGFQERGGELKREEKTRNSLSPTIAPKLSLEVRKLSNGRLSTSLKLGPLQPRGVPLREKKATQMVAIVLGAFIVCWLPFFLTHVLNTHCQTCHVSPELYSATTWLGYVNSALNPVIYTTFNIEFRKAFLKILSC

Regarding `C[C@@H]1C[C@H]2[C@@H]3CCC4=CC(=O)C=C[C@]4(C)C3=CC[C@]2(C)[C@H]1C(=O)CN1CCN(c2cc(N3CCCC3)nc(N3CCCC3)n2)CC1` [TIRILAZAD], the IC50 result (in assay [1]; at Estrogen receptor; on Nitric oxide synthase 1; in assay [2]; on D(3) dopamine receptor; in assay [3]) was “Not Active” each time. Besides, the IC50 result in assay [4] is reported as “Not Active”. Also, the Ki result in assay [1] and in assay [3] was “Not Active” throughout.

For `NC[C@H]1O[C@H](O[C@H]2[C@H](O)[C@@H](O[C@H]3O[C@H](CO)[C@@H](O)[C@H](N)[C@H]3O)[C@H](N)C[C@@H]2N)[C@H](N)C[C@@H]1O` [TOBRAMYCIN], the IC50 entry (in assay [1]; against Estrogen receptor; at Nitric oxide synthase 1; in assay [2]; at D(3) dopamine receptor; in assay [3]) was “Not Active” each time. In assay [4], the IC50 entry is on record as “Not Active”. Further, the inhibition constant Ki result in assay [1] and in assay [3] was “Not Active” in each case.

As for `COc1ccc(CN2CCNCC2)c(OC)c1OC` [TRIMETAZIDINE], the concentration for half-maximal inhibition (IC50) entry (in assay [1]; on Estrogen receptor; against Nitric oxide synthase 1; in assay [2]; at D(3) dopamine receptor; in assay [3]) was “Not Active” in each case. For the same molecule, the IC50 result in assay [4] was “Not Active”. Also, the Ki result in assay [1] and in assay [3] was “Not Active” each time.

For `CC(=O)O[C@H]1C[C@@H]2CC[C@@H]3[C@H](CC[C@@]4(C)[C@H]3C[C@H]([N+]3(C)CCCCC3)[C@@H]4OC(C)=O)[C@@]2(C)C[C@@H]1N1CCCCC1.[Br-]` [VECURONIUM BROMIDE], the half-maximal inhibitory concentration (IC50) entry (in assay [1]; against Estrogen receptor; against Nitric oxide synthase 1; in assay [2]; at D(3) dopamine receptor; in assay [3]) was “Not Active” each time. Besides, the IC50 result in assay [4] was “Not Active”. Besides, the Ki result in assay [1] and in assay [3] was “Not Active” throughout.

On to `COc1cc(C(=O)NS(=O)(=O)c2ccccc2C)ccc1Cc1cn(C)c2ccc(NC(=O)OC3CCCC3)cc12` [ZAFIRLUKAST], for which the IC50 result (in assay [1]; at Estrogen receptor; on Nitric oxide synthase 1; in assay [2]; on D(3) dopamine receptor; in assay [3]) was “Not Active” in each case. Moreover, the IC50 result in assay [4] is listed as “Not Active”. Further, the Ki result in assay [1] and in assay [3] was “Not Active” throughout.

As for `Cc1cn([C@H]2C[C@H](N=[N+]=[N-])[C@@H](CO)O2)c(=O)[nH]c1=O` [ZIDOVUDINE], the 50% inhibitory concentration (IC50) result (in assay [1]; against Estrogen receptor; against Nitric oxide synthase 1; in assay [2]; at D(3) dopamine receptor; in assay [3]) was “Not Active” in each case. Moreover, in assay [4], the IC50 entry is “Not Active”. Besides, the inhibition constant (Ki) result in assay [1] and in assay [3] was “Not Active” each time.

For the molecule STANNOUS FLUORIDE, the IC50 entry (in assay [1]; on Estrogen receptor; on Nitric oxide synthase 1; in assay [2]; on D(3) dopamine receptor; in assay [3]) was “Not Active” each time. For the same molecule, the IC50 result in assay [4] was “Not Active”. For the same molecule, the inhibition constant (Ki) entry (in assay [1]; at Estrogen receptor; at Nitric oxide synthase 1; in assay [2]; at D(3) dopamine receptor; in assay [3]) was “Not Active” throughout. Further, the Ki result in assay [4] is recorded as “Not Active”.

Regarding THIMEROSAL, the IC50 result is “Not Active” in assay [1]; “Not Active” against Estrogen receptor; “Not Active” at Nitric oxide synthase 1; “Not Active” in assay [2]; 85 nM at D(3) dopamine receptor (read-out: IC50); “Not Active” in assay [3]. Also, in assay [4], the IC50 result is given as “Not Active”. Further, the Ki entry in assay [1] was “Not Active”; at Estrogen receptor it was “Not Active”; at Nitric oxide synthase 1 it was “Not Active”; in assay [2] it was “Not Active”; at D(3) dopamine receptor (read-out: Ki), 29 nM; in assay [3], “Not Active”. In addition, the inhibition constant Ki entry in assay [4] is “Not Active”.

Usually IC50 stands for the concentration that inhibits the measured activity by half. Usually Ki stands for a measure of affinity in units of concentration, obtained from inhibition or displacement.
